Values after ≈ are worked out from the molar mass of the structure shown. Where two headings read alike, the source gives them in different places.
Key:
Escherichia coli = test: MIC and MBC test, E. coli; format: cell-based; conditions: Escherichia coli
Experimental: (§1) Using Muller Hinton agar medium, the antibacterial activity was evaluated by using 24 h cultures of Escherichia coli, Staphylococcus aureus, and Candida albicans. E. coli and S. aureus were incubated in 1% Mueller Hinton Broth (MHB) liquid medium at 37 °C for 24 h; C. albicans was incubated in Sabouraud Dextrose Broth (SDB) at 30 °C for 48 h. MIC (Minimum Inhibitory Concentration) and MBC (Minimum Bactericidal Concentration) tests were performed to determine antimicrobial activity. This stage was carried out in a sterile cabinet.
(§2) The density of microorganisms in fresh cultures was adjusted according to the MacFarland 0.5 scale. For that, the microorganisms were centrifuged at 4000 rpm for 20 min. The supernatant was poured off, and the pellet was washed with 1 mL of 0.9% NaCl solution (physiological saline). The centrifugation was then repeated. The pellet was dissolved again with saline solution and adjusted to 0.5 MacFarland. In the experiment performed in a sterile 96-well plate, compound 4o was diluted ½ with DMSO to prepare a stock solution. In the first, 100 µl of medium and 100 µl of compound 4o as initial dilutions. Dilution was performed seven times at a ratio of ½. Then, 5 µl of fresh microorganism cultures prepared as MacFarland 0.5 were inoculated. The control group was prepared as 100 µl medium, 100 µl distilled water, and 5 µl microorganisms. The plates were incubated at 37 °C and 30 °C for 24 h.
(§3) After incubation, 10 µl of the sample was taken, dropped onto the respective media, and incubated for 24 h at appropriate temperatures to clearly distinguish the residues left by the compound 4o and the growth of microorganisms. Mueller Hinton Agar (MHA) was used for E. coli and S. aureus, and Potato Dextrose Agar (PDA) was used for C. albicans. After incubation, MIC and MBC values were determined. The first well with a significant decrease in growth was considered as MIC, and the first well with no growth was considered as MBC [59, 60].

[1] = DPPH radical scavenging assay; format: biochemical; conditions: 30 min, 517 nm
Experimental: To estimate the Carbazole derivatives' antioxidant potential, a solution of each compound (1 mM/mL) in methanol was serially diluted with methanol to obtain a concentration of 1, 2, 5, 10, 20, 50, and 100 µM/mL. Then, DPPH (2,2-diphenyl-1-picrylhydrazyl) reagent (Sigma, USA) was dissolved in 0.002% w/v methanol and mixed with the previously prepared working concentrations in a 1:1 ratio. The same procedures were repeated for Trolox (Sigma-Aldrich, Denmark), which was used as a positive control. All of the solutions were kept in the dark chamber for 30 min at an ordinary temperature. Then, their absorbance values were measured at a wavelength of 517 nm utilizing a UV–visible spectrophotometer. The DPPH inhibition potentials by Carbazole derivatives and Trolox were determined employing the following equation: DPPH inhibition(\%)=abs(blank)-abs(sample)/abs(blank)∗100\% where absblank is the blank absorbance and abssample is the absorbance of the samples [58]. The antioxidant half-maximal inhibitory concentration (IC50) of the synthesized carbazole derivatives and Trolox were assessed by using an online tool “Quest Graph™ IC50 Calculator.” AAT Bioquest, Inc., 25 May. 2023, https://www.aatbio.com/tools/ic50-calculator.

MCF-7 cells [2] = test: Cell cycle analysis by flow cytometry; format: cell-based
Text: The manufacturer protocol (Sigma-Aldrich Mak344 Cell Cycle Analysis Kit) was used to perform cell cycle experiments and analyzed by flow cytometry (Beckman Coulter Cytoflex).

MCF-7 cell line = test: MTT cell viability, MCF-7 cancer cell line; format: cell-based
Experimental: MCF-7 cancer cell lines were cultured at Dulbecco’s Modified Eagle Medium High Glucose (DMEM) (EuroClone, Via Figino, Italy); fetal bovine serum (FBS) and MTT (3-(4,5-Dimethylthiazol-2-yl)-2,5-Diphenyl Tetrazolium Bromide) were provided by Sigma-Aldrich (Darmstadt, Germany); ApopNexin Annexin-V-FITC with PI Apoptosis Kit was obtained from Merck (Darmstadt, Germany); Total RNA Isolation Kit was provided by Analytic Jena (Jena, Germany), SensiFast cDNA Synthesis Kit was provided by Meridian Bioscience (Cincinati, USA), SybrGreen Master Mix was obtained from EuroClone (Via Figino, Italy).
(§4) Cells (MCF-7 and L929) were incubated in 75 cm^2 sterile flasks with 10% FBS, 100 U/mL penicillin, and 100 µg/mL streptomycin. The cells were grown at 37 ^○C in 5% CO2, and MTT was used to screen the viability of the cells. Cells were seeded at a density of 10^4 cells per well. The cells were then cultured for 24 h in 100 µl of DMEM complete medium. After pretreatment with different concentrations of the compounds for 48 h, 10 µl of 5 mg/mL MTT solution was added to each well and incubated for 4 h at 37 ^○C, and 100 µl of DMSO was used in each well to dissolve the blue formazan crystals. Then, the absorbance was measured at 570 nm. The cell viability percentages of compound 4o against MCF-7 cancer cell lines and L929 normal cell lines were presented in Fig. 2 in comparison with doxorubicin anticancer agent.

MCF-7 cells [3] = test: Annexin-V-FITC/PI apoptosis assay by flow cytometry; format: cell-based
Experimental: FITC Annexin-V apoptosis detection kit with PI, ApopNexinTM FITC (APT750, Merk, Germany) was used for apoptosis assay. MCF-7 cells were seeded into a 6-well plate (1 × 10^6 cells per well). Then, the cells were incubated with the compounds at the cytotoxic concentration by employing a cell viability assay. Apoptotic cells were cultured with the compounds, the medium was removed after incubation, and the cells were washed twice with 5 mL of pre-chilled phosphate-buffered saline. Cells washed with PBS were lifted with Trypsin–EDTA and centrifuged at 400 rpm for 5 min. The resulting cells were each treated with 1 mL of cold 1-X Binding Buffer (Sigma Aldrich, USA). Then, 200 μL of the mixture was taken and placed in a flow cytometry tube, and the other part containing cells was kept on ice. First, 3 µl of ApopNexinTM FITC and 2 µl of 100X propidium iodide (PI) (P4170, Sigma Aldrich, USA) were added to the solution taken into the sample tube and mixed. The resulting mixture was incubated for 15 min in the dark at room temperature. At the end of the incubation, the samples were measured in flow cytometry (Beckman Coulter Cytoflex) and data were obtained.

Candida albicans = test: MIC and MBC test, C. albicans; format: cell-based
Experimental: as §1, §2, §3

L929 normal cell lines = test: MTT cell viability, L929 normal cell line; format: cell-based; conditions: Mus musculus, 48 h
Experimental: as §4

Staphylococcus aureus = test: MIC and MBC test, S. aureus; format: cell-based; conditions: Staphylococcus aureus
Experimental: as §1, §2, §3

MCF-7 cancer cell lines = test system: MCF-7 cancer cell lines; design: method as in PMID 37328860; conditions: previous preliminary work; read-out: anticancer IC50 MCF-7; cited from earlier work
HeLa cancer cell lines = test system: HeLa cancer cell lines; design: method as in PMID 37328860; conditions: previous preliminary work; read-out: anticancer IC50 HeLa; cited from earlier work
[4] = design: method as in PMID 37328860; conditions: previous preliminary work; read-out: Antioxidant IC50 against DPPH; cited from earlier work

MIC (Escherichia coli; read-out: MIC) | IC50 [1] | IC50 (MCF-7 cell line; Homo sapiens, MCF7, MTT, 48 h, read-out: IC50 values Carbazole Derivatives Effect on MCF-7 Cell Line) | MIC (Candida albicans) | MIC (Staphylococcus aureus) | Structure (SMILES) | MBC (Escherichia coli; read-out: MBC) | cell cycle arrest (MCF-7 cells [2]) | selective index (SI) (MCF-7 cell line; L929 vs MCF-7) | induction of apoptosis (MCF-7 cells [3]; MCF-7) | necrosis cell population (MCF-7 cells [3]; MCF-7, cytotoxic concentration) | post-apoptotic cell population (MCF-7 cells [3]; MCF-7, cytotoxic concentration) | pre-apoptotic cell population (MCF-7 cells [3]; MCF-7, cytotoxic concentration) | viable cell population (MCF-7 cells [3]; MCF-7, cytotoxic concentration) | total dead cells (MCF-7 cells [3]; MCF-7, sum of pre-apoptotic, post-apoptotic and necrosis) | MBC (Candida albicans) | IC50 (L929 normal cell lines) | MBC (Staphylococcus aureus; read-out: MBC) | IC50 (MCF-7 cancer cell lines) | IC50 (HeLa cancer cell lines) | IC50 [4]
1.56 µM (≈ 0.628 µg/mL) | 158 ± 2.54 µM | 2.02 ± 0.04 µM | 0.39 µM (≈ 0.157 µg/mL) | 1.56 µM (≈ 0.628 µg/mL) | O=C(Cn1c2ccccc2c2ccccc21)NNC(=S)NC(=O)c1ccccc1 [Compound 4o, N-(2-(2-(9H-carbazol-9-yl)acetyl)hydrazine-1-carbonothioyl)benzamide] | 1.56 µM (≈ 0.628 µg/mL) | cell cycle arrest in the MCF-7 cell line in the G2/M phase | 18.70 | drives MCF-7 cells to apoptosis | 3.69% | 4.33% | 8.20% | 83.78% | 16.22% | 0.39 µM (≈ 0.157 µg/mL) | 37.8 µM | 1.56 µM (≈ 0.628 µg/mL) | – | – | –
– | – | – | – | – | O=C(Cn1c2ccccc2c2ccccc21)N/N=C1\SCC(=O)N1c1ccc(Cl)cc1 [St.2] | – | – | – | – | – | – | – | – | – | – | – | – | 18.4 µM | 7.59 µM | 5.15 µM
– | – | – | – | – | O=C(c1ccc(F)cc1)n1nc(Cn2c3ccccc3c3ccccc32)oc1=O [St.3] | – | – | – | – | – | – | – | – | – | – | – | – | 6.44 µM | 17.2 µM | –
